Experiment [1] deals with Human Simpson-Golabi-Behmel syndrome (SGBS) preadipocytes. Description: Brown cell differentiation of SGBS preadipocytes, high content imaging with anti-UCP1 and LipidTox staining. The format is cell-based. Conditions: concentration not given; for % Brown (adipocytes): day 11, LipidTox and UCP1 positive; for % White (adipocytes): day 11, LipidTox positive, below UCP1 threshold; for UCP1 fold: day 11, UCP1 staining. How it is done:
OF Media included 1% Anti-Anti, […] biotin, […] panthotenate, and DMEM:F12 (1:1) media. Growth media included OF Media and 10% Fetal Bovine Serum. Differentiation induction media included OF Media, 10 μg/mL Insulin, 0.5 mM IBMX, and 1 μM Dexamethasone. The maintenance media included OF media and 10 μg/mL Insulin.
Human Simpson-Golabi-Behmel syndrome (SGBS) preadipocyteswere cultured in T225 flasks containing Growth Media. Upon passaging, cells were trypsinized, collected, spun down at 1250 g for 5 minutes at 20° C. to pellet. Cells were then resuspended in growth media before seeding cells at optimal density to maintain 75-80% confluency before passaging every 3-4 days.
Compounds at varying concentrations (starting at 20 uM with 1:3 dilution) were spotted onto 384-well black clear bottom plates (Greiner). The negative control consisted of DMSO while positive controls contained 2 uM of Rosiglitazone (Cayman). 50 μL of SGBS cells in induction were seeded directly on top of compound at a concentration of 1.1×10^5 cells/mL (˜5500 cells/well). After 4 days of induction, media was changed to 50 μL of maintenance media. Every 2-4 days after, media was changed again with 50 μL maintenance media until day 11.
After 11 days of differentiation, cells were fixed with 10 μL of 32% Paraformaldehyde for 10 minutes, followed by 10 μL of 7% Triton X-100 for another 10 minutes. Media was then aspirated down to 5 μL, 25 μL of Blocking Buffer 1 (2% BSA and 2.5% goat serum) was added, and plates were incubated for 1 hour. Plates were then aspirated down to 5 μL and 25 μL of primary antibody was added for 16 hour incubation. Primary antibody containing UCP1 (Sigma; Rabbit; 1:100) was diluted in Blocking Buffer 2 (2% BSA).
The next day, plates were washed 3 times with 1× PBS and 25 μL of secondary antibody were added. Secondary antibody containing Hoechst (1:6000), Alex Fluor 647 goat Anti-Rabbit (1:1000), and HCS LipidTOX Green Neutral Lipid Stain (Life Technologies; 1:800) were diluted in Blocking Buffer 2 (2% BSA). After 1 hour of incubation at room temperature, plates were washed 3 times with 1× PBS and left in 50 μL of PBS. Plates were then sealed and imaged.
Plates were imaged using CellInsight CX5 High Content Screening (HCS) Platform. Total cell number was detected using Hoechstand images were used to quantify total adipocytes (met defined threshold of lipidtox staining intensity).

The next experiment has as its system SGBS preadipocytes. Kind of experiment: Brown adipocyte differentiation of SGBS preadipocytes with or without exogenous LPA. It counts as cell-based, human. Conditions: day 11 SGBS adipocytes, compound during days 3-4 of induction, 10 μM LPA during days 1-4; FIG. 6A. Here is the method:
SGBS preadipocytes were plated in 384 plates as previously described but using induction media with or without the addition of 10 μM lysophosphatidic acid (LPA) for the first 2 days. On day 3, cells were treated with 10 μL of 6× concentration of compound 19 (final concentration was a 1:3 serial dilution starting at 20 μM) again with or without the addition of LPA. On day 5, media was changed to maintenance media until day 11. Staining and analysis of brown adipocytes based on UCP1 and lipid performed as described previously.

As to `COC(=O)c1ccc(NS(=O)(=O)c2ccc(-c3c(C)noc3C)cc2)cc1` [Compound 10], in experiment [1] (1st of 3 sub-columns), the “% Brown (adipocytes)” value is 17%, the “% White (adipocytes)” value was 6% and the UCP1 fold worked out at 1.5x. Also, in experiment [1] (2nd of 3 sub-columns), the “% Brown (adipocytes)” value is on record as 21%, the “% White (adipocytes)” value came out at 8% and the UCP1 fold worked out at 1.5x. In experiment [1] (3rd of 3 sub-columns), the “% Brown (adipocytes)” value worked out at 29%, the “% White (adipocytes)” value is on record as 10% and the UCP1 fold stood at 2.0x.
As to `Cc1ccc(CNC(=O)C2CCN(S(=O)(=O)c3cc(-c4noc(C5CC5)n4)sc3C)CC2)o1` [Compound 1], in experiment [1] (1st of 3 sub-columns), the “% Brown (adipocytes)” value came to 15%, the “% White (adipocytes)” value came out at 6% and the UCP1 fold came out at 1.2x. Also, in experiment [1] (2nd of 3 sub-columns), the “% Brown (adipocytes)” value worked out at 27%, the “% White (adipocytes)” value worked out at 3% and the UCP1 fold is 2.6x. Besides, in experiment [1] (3rd of 3 sub-columns), the “% Brown (adipocytes)” value was found to be 30%, the “% White (adipocytes)” value is on record as 4% and the UCP1 fold was 2.7x.
For `Cc1ccc(C)c(-c2csc(Nc3ccc(S(=O)(=O)Nc4cc(C)on4)cc3)n2)c1` [Compound 9], in experiment [1] (1st of 3 sub-columns), the “% Brown (adipocytes)” value is on record as 18%, the “% White (adipocytes)” value is 5% and the UCP1 fold is 1.5x. For the same compound, in experiment [1] (2nd of 3 sub-columns), the “% Brown (adipocytes)” value worked out at 21%, the “% White (adipocytes)” value is 6% and the UCP1 fold came to 1.9x. In addition, in experiment [1] (3rd of 3 sub-columns), the “% Brown (adipocytes)” value came out at 31%, the “% White (adipocytes)” value is 6% and the UCP1 fold is 2.7x.
`Cc1nn(-c2ccccc2)c(C)c1S(=O)(=O)N1CCC(C(=O)NCCc2cccs2)CC1` [Compound 3]: in experiment [1] (1st of 3 sub-columns), the “% Brown (adipocytes)” value was found to be 20%, the “% White (adipocytes)” value was determined as 10% and the UCP1 fold was found to be 1.6x. Further, in experiment [1] (2nd of 3 sub-columns), the “% Brown (adipocytes)” value was 28%, the “% White (adipocytes)” value is on record as 8% and the UCP1 fold was 2.1x. For the same compound, in experiment [1] (3rd of 3 sub-columns), the “% Brown (adipocytes)” value is 30%, the “% White (adipocytes)” value turned out to be 5% and the UCP1 fold turned out to be 2.9x.
With `Cc1sc(-c2noc(C3CCC3)n2)cc1S(=O)(=O)N1CCC(C(=O)NCc2ccco2)CC1` [Compound 4], in experiment [1] (1st of 3 sub-columns), the “% Brown (adipocytes)” value was determined as 17%, the “% White (adipocytes)” value was 5% and the UCP1 fold turned out to be 1.5x. In experiment [1] (2nd of 3 sub-columns), the “% Brown (adipocytes)” value turned out to be 22%, the “% White (adipocytes)” value came out at 7% and the UCP1 fold worked out at 1.6x. In experiment [1] (3rd of 3 sub-columns), the “% Brown (adipocytes)” value stood at 30%, the “% White (adipocytes)” value stood at 5% and the UCP1 fold is 2.6x.
Consider `Cc1nc(-c2cc(S(=O)(=O)N3CCC(C(=O)NCCc4cccs4)CC3)c(C)s2)no1` [Compound 2], for which, in experiment [1] (1st of 3 sub-columns), the “% Brown (adipocytes)” value is given as 29%, the “% White (adipocytes)” value came to 9% and the UCP1 fold came out at 2.2x. Further, in experiment [1] (2nd of 3 sub-columns), the “% Brown (adipocytes)” value came to 34%, the “% White (adipocytes)” value is 8% and the UCP1 fold is given as 2.8x. Besides, in experiment [1] (3rd of 3 sub-columns), the “% Brown (adipocytes)” value turned out to be 34%, the “% White (adipocytes)” value is recorded as 7% and the UCP1 fold is 2.9x.
On to `COC(=O)CCSCc1ccc(-c2onc(C)c2NC(=O)OC(C)c2ccccc2Cl)cc1` (stereo not shown) [Compound 19], for which the “induction of brown adipocyte differentiation in the presence of exogenous LPA” value in the experiment on SGBS preadipocytes was “attenuated induction of brown adipocyte differentiation”.
For the compound `Cc1ccc(NS(=O)(=O)c2ccc(-c3c(C)noc3C)cc2)cc1Cl` [Compound 11], in experiment [1] (1st of 3 sub-columns), the “% Brown (adipocytes)” value amounted to 18%, the “% White (adipocytes)” value is 4% and the UCP1 fold is on record as 1.7x. Moreover, in experiment [1] (2nd of 3 sub-columns), the “% Brown (adipocytes)” value was determined as 22%, the “% White (adipocytes)” value is 6% and the UCP1 fold came to 1.8x. Moreover, in experiment [1] (3rd of 3 sub-columns), the “% Brown (adipocytes)” value came out at 24%, the “% White (adipocytes)” value is listed as 11% and the UCP1 fold is 1.7x.
As for `Cc1sc(-c2noc(C(C)C)n2)cc1S(=O)(=O)N1CCC(C(=O)NCc2cccs2)CC1` [Compound 5], in experiment [1] (1st of 3 sub-columns), the “% Brown (adipocytes)” value turned out to be 18%, the “% White (adipocytes)” value stood at 3% and the UCP1 fold worked out at 1.8x. In addition, in experiment [1] (2nd of 3 sub-columns), the “% Brown (adipocytes)” value came to 22%, the “% White (adipocytes)” value was found to be 7% and the UCP1 fold was determined as 1.8x. Moreover, in experiment [1] (3rd of 3 sub-columns), the “% Brown (adipocytes)” value came to 28%, the “% White (adipocytes)” value is given as 7% and the UCP1 fold was 2.2x.
Consider `Cc1sc(-c2noc(C(C)C)n2)cc1S(=O)(=O)N1CCC(C(=O)N(C)Cc2ccco2)CC1` [Compound 6], for which the entries for the “% Brown (adipocytes)” value in experiment [1] (1st of 3 sub-columns), in experiment [1] (2nd of 3 sub-columns) and in experiment [1] (3rd of 3 sub-columns) were 14%, 23% and 29%, respectively. For the same compound, the “% White (adipocytes)” value is 6% in experiment [1] (1st of 3 sub-columns), 6% in experiment [1] (2nd of 3 sub-columns) and 5% in experiment [1] (3rd of 3 sub-columns). Moreover, the values for the UCP1 fold in experiment [1] (1st of 3 sub-columns), in experiment [1] (2nd of 3 sub-columns) and in experiment [1] (3rd of 3 sub-columns) were 1.2x, 1.7x and 2.4x, respectively.

Values taken from patent US20170042915A1, “LPA RECEPTOR MODULATORS FOR BROWN FAT DIFFERENTIATION” (The California Institute for Biomedical Research, priority 2015, published 2017).
